One data set concerns HPA axis. Nature of the data set: Case report: recovery of the HPA axis (ACTH, cortisol, DHEA levels) in a patient with secondary adrenal insufficiency. In kind it is in vivo, human. An excerpt: The patient is a person who developed depression for which they were placed on various psychotropic medications. They developed progressive malaise, 25 pound weight gain, muscle weakness, easing bruising, hypertension and foot stress fracture. They underwent screening DEXA bone density scan because of their personal history of fracture and a family history of advanced osteoporosis and genetically confirmed hypophosphatasia in their parent. The DEXA bone density scan disclosed a T-score of −3.4 at the lumbar spine and −3.1 at the hip. […] Further testing for secondary causes of osteoporosis included 24-hour urinary free cortisol which was markedly elevated at 499 mcg/day (range 10-80 mcg/day). Plasma ACTH level was undetectable. […], they underwent uncomplicated right laparoscopic adrenalactomy and histopathology confirmed a 3.7 cm adrenal cortical adenoma. The patient underwent a unilateral procedure, leaving one adrenal gland intact. Post-operatively the patient was placed on hydrocortisone replacement, initially at a dose of 40 mg/day given in divided doses and gradually tapered to 30 mg/day over the following several months. One year after their adrenalectomy, their hydrocortisone had been further tapered to 15 mg/day, which remained their maintenance dose. During the ensuing 6 years after their adrenalectomy, the patient generally felt unwell with symptoms of episodic nausea, headaches, lightheadedness, mood swings and generalized weakness. Quarterly measurement of serum cortisol and plasma ACTH levels (performed after holding hydrocortisone for 18 hours) consistently yielded undetectable values for both parameters. During this 6 year period, they had one pregnancy, occurring 3 years after adrenalectomy and progressing to full-term delivery of a healthy child. They had two other hospitalizations (separated by 4 years) for near-syncope, malaise, nausea and vomiting (but without hypoglycemia or hypotension). Both episodes were treated with 48-hours of intravenous stress-doses of glucocorticoids and saline, followed by improvement of their symptoms and subsequent tapering of glucocorticoids to a replacement dose of hydrocortisone 15 mg/day. The failure of the HPA axis to recover six years after adrenalectomy (despite physiological steroid dosing) prompted magnetic resonance imaging of the sella to rule out structural abnormalities of the hypothalamus, infundibulum and pituitary. This MRI was unremarkable. At that time, after a balanced discussion of risk and benefit, mifepristone 150 mg every other day was initiated and the dose of hydrocortisone 15 mg/day was continued. Over the ensuing five months, the dose of mifepristone was gradually escalated to 300 mg every other day, then 300 mg daily and finally maintained at 600 mg daily. […] The dose of hydrocortisone was lowered and ultimately stopped 8 months after initiation of mifepristone. […] The pruritis was tolerable and managed with over the counter anti-histamines. At no point during treatment with mifepristone did the patient develop signs or symptoms of adrenal insufficiency. Their menses returned 3 weeks after discontinuation of mifepristone. [table] […] Recovery of the patient's HPA axis was achieved. The patient's ACTH and cortisol levels increased in response to the drug treatment.

The nature of data set [1]: Case report: tolerability and side effects of mifepristone in the patient. In kind it is in vivo, human. On the procedure:
The failure of the HPA axis to recover six years after adrenalectomy (despite physiological steroid dosing) prompted magnetic resonance imaging of the sella to rule out structural abnormalities of the hypothalamus, infundibulum and pituitary. This MRI was unremarkable. At that time, after a balanced discussion of risk and benefit, mifepristone 150 mg every other day was initiated and the dose of hydrocortisone 15 mg/day was continued. Over the ensuing five months, the dose of mifepristone was gradually escalated to 300 mg every other day, then 300 mg daily and finally maintained at 600 mg daily. […] The dose of hydrocortisone was lowered and ultimately stopped 8 months after initiation of mifepristone. […] The pruritis was tolerable and managed with over the counter anti-histamines. At no point during treatment with mifepristone did the patient develop signs or symptoms of adrenal insufficiency. Their menses returned 3 weeks after discontinuation of mifepristone.

[2] abbreviates: 6 years after adrenalectomy on hydrocortisone replacement alone (15 mg/day), after holding hydrocortisone for 18 hours.
Setting [3] is: Month 0, Mife dose 0, HC dose 15 mg (before mifepristone).
[4] abbreviates: Month 1, Mife 150 mg TIW, HC 15 mg.
The mark [5] stands for this setting: Month 3, Mife 300 mg TIW, HC 15 mg.
The mark [6] stands for this setting: Month 4, Mife 300 mg daily, HC 15 mg.
Where [7] appears, read: Month 5, Mife 600 mg daily, HC 15 mg.
Where [8] appears, read: Month 6, Mife 600 mg daily, HC 10 mg.
Where [9] appears, read: Month 10, Mife 0, HC 0 (after completion of treatment).
[10] abbreviates: Month 11, Mife 0, HC 0 (after completion of treatment).
[11] abbreviates: patient, mifepristone up to 600 mg daily.

Each structure is given as a SMILES string.

With `C[C@]12CCC(=O)C=C1CC[C@@H]1[C@@H]2[C@@H](O)C[C@@]2(C)[C@H]1CC[C@]2(O)C(=O)CO` [hydrocortisone], in the data set on HPA axis (setting [2]), the “plasma ACTH level, quarterly measurement” value is recorded as “undetectable” and the “serum cortisol level, quarterly measurement” value is “undetectable”. For the same compound, in the data set with HPA axis (setting [3]), the ACTH is given as 5 pg/mL, the Cortisol was <1 µg/dL and the DHEA is <0.05 ng/mL.
As for `CC#C[C@]1(O)CC[C@H]2[C@@H]3CCC4=CC(=O)CCC4=C3[C@@H](c3ccc(N(C)C)cc3)C[C@@]21C` [mifepristone, 17-β-hydrox-11-β-(4-dimethyl-aminophenyl)17-α-(1-propynyl)estra-4,9-dien-3-one], the ACTH with HPA axis (setting [4]) stood at 15 pg/mL; with HPA axis (setting [5]), 18 pg/mL; in the data set on HPA axis (setting [6]), 60 pg/mL; in the data set on HPA axis (setting [7]), 78 pg/mL; with HPA axis (setting [8]), 173 pg/mL; in the data set on HPA axis (Month 8, Mife 300 mg TIW, HC 0), 126 pg/mL. Moreover, the ACTH was found to be 26 pg/mL in the data set with HPA axis (setting [9]) and 45 pg/mL in the data set with HPA axis (setting [10]). Also, the Cortisol in the data set on HPA axis (setting [4]) is <1 µg/dL; with HPA axis (setting [5]), <1 µg/dL; with HPA axis (setting [6]), 3.6 µg/dL; with HPA axis (setting [7]), 4.6 µg/dL; in the data set with HPA axis (setting [8]) it was 10.5 µg/dL; with HPA axis (Month 8, Mife 300 mg TIW, HC 0), 13.6 µg/dL. Also, the Cortisol turned out to be 13.5 µg/dL in the data set on HPA axis (setting [9]) and 15.3 µg/dL with HPA axis (setting [10]). The DHEA is <0.05 ng/mL in the data set with HPA axis (setting [4]); <0.05 ng/mL with HPA axis (setting [5]); <0.05 ng/mL in the data set with HPA axis (setting [6]); <0.05 ng/mL in the data set with HPA axis (setting [7]); <0.05 ng/mL with HPA axis (setting [8]); <0.05 ng/mL in the data set with HPA axis (Month 8, Mife 300 mg TIW, HC 0). Moreover, the DHEA with HPA axis (setting [9]) was <0.05 ng/mL; in the data set on HPA axis (setting [10]), 0.053 ng/mL. Also, the “levels of ACTH and cortisol after completion of the treatment” value in the data set with HPA axis (after completion of hydrocortisone and mifepristone treatment) was “Normal levels of ACTH and cortisol were maintained”. For the same compound, in the data set with HPA axis (co-administration of hydrocortisone and mifepristone), the “treatment outcome of secondary adrenal insufficiency” value was “successfully treated”. The “recovery of the HPA axis” value with HPA axis (mifepristone escalated 150 mg every other day to 600 mg daily, with hydrocortisone 15 mg/day) is recorded as “rapid recovery of the HPA axis was noted”. The “time to rise in ACTH into the supra-normal range after starting mifepristone” value with HPA axis (with hydrocortisone 15 mg/day) came out at 4 months. Further, the “signs or symptoms of adrenal insufficiency during treatment” value in data set [1] (during treatment with mifepristone) was “At no point”. The “time to return of menses after discontinuation of mifepristone” value in data set [1] (human, in vivo) is 3 weeks. In addition, the side effects result in data set [1] (setting [11]) was “amenorrhea and pruritis”. In addition, the tolerability entry in data set [1] (setting [11]) is “tolerated mifepristone remarkably well”.

For the origin of these results see patent publication US12691127B2, “Use of glucocorticoid receptor antagonists in combination with glucocorticoids to treat adrenal insufficiency” (Corcept Therapeutics, Inc., priority 2015, dated 2026).
